Structures are written as SMILES.

Results on 1 compound are retold here after paper PMC7522982, “PKIS deep dive yields a chemical starting point for dark kinases and a cell active BRSK2 inhibitor” (Scientific Reports, 2020).

What all share (test): Eurofins kinase enzymatic radiometric assay
What all share (assay type): biochemical
What all share (parameters): purchased Eurofins
Common to all, as to conditions: Km of ATP, 9-point curve in duplicate

The target in one assay is TNIK (Homo sapiens, UniProt Q9UKE5). An excerpt:
(§1) Due to our interest in the activity of GW296115 on several understudied IDG kinases, we collected full dose–response curves for all wild type kinases inhibited ≥ 75% in the DiscoverX panel that were offered by Eurofins. Having data in orthogonal formats is a powerful way to confirm inhibitory activity and adds rigor to our results. Eurofins has kinase enzymatic radiometric assays for 35 of the kinases on this list (Table S2) and a kinase enzymatic LANCE assay for one additional kinase (MAP2K5/MEK5).
(§2) Eurofins kinase enzymatic radiometric assays were carried out at the Km of ATP in dose–response (9-pt curve in duplicate) for each kinase for which it was offered.

The target of a further assay is DAPK3/ZIPK (Homo sapiens, UniProt O43293).
DAPK3/ZIPK, sequence (O43293 whole entry): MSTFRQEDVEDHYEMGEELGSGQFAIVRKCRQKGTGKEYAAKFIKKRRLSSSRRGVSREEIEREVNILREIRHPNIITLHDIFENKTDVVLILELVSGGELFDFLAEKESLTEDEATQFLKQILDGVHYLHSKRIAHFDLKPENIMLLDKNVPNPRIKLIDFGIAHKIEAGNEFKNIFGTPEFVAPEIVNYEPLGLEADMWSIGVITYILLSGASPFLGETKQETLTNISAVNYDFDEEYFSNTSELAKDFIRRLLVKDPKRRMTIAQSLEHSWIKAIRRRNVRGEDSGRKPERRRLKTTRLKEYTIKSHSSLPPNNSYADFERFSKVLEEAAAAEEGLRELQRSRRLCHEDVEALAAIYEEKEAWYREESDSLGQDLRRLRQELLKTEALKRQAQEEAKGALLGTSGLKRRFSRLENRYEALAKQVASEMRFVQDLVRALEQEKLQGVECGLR
Excerpt: as §1, §2

The target of another assay is CHEK2 (Homo sapiens, UniProt O96017).
Excerpt: as §1, §2

Another assay addresses T1, BRSK2 (Homo sapiens, UniProt Q8IWQ3).
T1 sequence (Q8IWQ3 1-736): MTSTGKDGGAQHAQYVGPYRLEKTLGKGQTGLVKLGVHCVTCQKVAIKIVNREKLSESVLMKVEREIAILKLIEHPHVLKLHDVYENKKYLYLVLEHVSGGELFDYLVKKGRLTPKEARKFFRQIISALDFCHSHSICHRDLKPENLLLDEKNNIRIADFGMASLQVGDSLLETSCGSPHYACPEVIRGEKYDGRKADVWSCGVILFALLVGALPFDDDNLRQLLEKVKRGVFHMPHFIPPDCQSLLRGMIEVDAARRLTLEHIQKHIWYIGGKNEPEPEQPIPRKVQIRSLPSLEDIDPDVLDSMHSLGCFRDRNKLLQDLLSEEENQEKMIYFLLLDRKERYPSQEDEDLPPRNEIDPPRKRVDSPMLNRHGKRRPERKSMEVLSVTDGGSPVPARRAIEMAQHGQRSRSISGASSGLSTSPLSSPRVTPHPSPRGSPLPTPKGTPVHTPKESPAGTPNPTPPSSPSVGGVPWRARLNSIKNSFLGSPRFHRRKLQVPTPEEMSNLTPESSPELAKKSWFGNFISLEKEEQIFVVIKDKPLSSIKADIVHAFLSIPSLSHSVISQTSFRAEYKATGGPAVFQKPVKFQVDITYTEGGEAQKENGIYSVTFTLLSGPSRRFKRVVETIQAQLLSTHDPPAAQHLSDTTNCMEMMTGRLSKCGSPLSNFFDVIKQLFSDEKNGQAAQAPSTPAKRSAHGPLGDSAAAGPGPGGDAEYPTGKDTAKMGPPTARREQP
Excerpt: as §1, §2

A further assay deals with PLK4 (Homo sapiens, UniProt O00444).
PLK4, sequence (O00444 whole entry): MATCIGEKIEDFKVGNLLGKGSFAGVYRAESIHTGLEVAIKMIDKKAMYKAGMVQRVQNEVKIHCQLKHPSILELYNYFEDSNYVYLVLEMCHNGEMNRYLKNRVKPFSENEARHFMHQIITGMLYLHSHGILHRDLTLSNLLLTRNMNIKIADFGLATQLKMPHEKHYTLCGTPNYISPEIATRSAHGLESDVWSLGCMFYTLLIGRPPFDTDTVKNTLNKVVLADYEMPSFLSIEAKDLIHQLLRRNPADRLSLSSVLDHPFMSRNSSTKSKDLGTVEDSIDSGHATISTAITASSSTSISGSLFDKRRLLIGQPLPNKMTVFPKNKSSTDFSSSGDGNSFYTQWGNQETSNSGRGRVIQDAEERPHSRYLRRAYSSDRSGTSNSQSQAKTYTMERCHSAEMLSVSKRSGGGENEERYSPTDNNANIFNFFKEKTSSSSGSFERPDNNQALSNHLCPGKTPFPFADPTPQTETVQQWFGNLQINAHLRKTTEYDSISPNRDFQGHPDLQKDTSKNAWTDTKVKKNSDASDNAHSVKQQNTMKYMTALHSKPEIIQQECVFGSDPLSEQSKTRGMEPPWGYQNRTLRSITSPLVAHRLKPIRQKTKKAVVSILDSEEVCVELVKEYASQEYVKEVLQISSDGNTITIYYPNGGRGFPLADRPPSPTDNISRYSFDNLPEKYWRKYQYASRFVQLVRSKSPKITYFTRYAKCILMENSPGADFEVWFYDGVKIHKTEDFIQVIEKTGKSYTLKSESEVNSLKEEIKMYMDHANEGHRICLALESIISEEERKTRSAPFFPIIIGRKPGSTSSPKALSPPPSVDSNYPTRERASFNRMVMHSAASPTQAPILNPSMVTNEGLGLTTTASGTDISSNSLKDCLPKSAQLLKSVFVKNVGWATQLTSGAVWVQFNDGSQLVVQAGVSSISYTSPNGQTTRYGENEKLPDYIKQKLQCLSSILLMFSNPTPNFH
Excerpt: as §1, §2

In the next assay the target is PDGFRA (Homo sapiens, UniProt P16234).
Excerpt: as §1, §2

The target of a further assay is DMPK (Homo sapiens, UniProt Q09013).
Excerpt: as §1, §2

The next assay deals with PHKG1 (Homo sapiens, UniProt Q16816).
PHKG1, sequence (Q16816 whole entry): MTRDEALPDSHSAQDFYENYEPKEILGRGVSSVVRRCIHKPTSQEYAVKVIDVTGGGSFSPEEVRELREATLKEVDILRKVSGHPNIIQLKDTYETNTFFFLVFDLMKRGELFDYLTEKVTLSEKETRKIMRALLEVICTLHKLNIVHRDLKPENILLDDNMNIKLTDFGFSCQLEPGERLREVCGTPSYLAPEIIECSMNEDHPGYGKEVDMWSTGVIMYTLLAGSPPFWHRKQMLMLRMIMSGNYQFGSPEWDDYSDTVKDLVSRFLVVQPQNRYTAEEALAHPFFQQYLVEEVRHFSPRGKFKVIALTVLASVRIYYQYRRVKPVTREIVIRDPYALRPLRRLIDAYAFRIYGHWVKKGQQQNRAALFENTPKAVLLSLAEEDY
Excerpt: as §1, §2

Another assay concerns the target MINK1/MINK (Homo sapiens, UniProt Q8N4C8).
Excerpt: as §1, §2

Another assay addresses ROS1 (Homo sapiens, UniProt P08922).
Excerpt: as §1, §2

Another assay addresses PIM3 (Homo sapiens, UniProt Q86V86).
Excerpt: as §1, §2

A further assay addresses RPS6KA6/RSK4 (Homo sapiens, UniProt Q9UK32).
Excerpt: as §1, §2

Another assay addresses PDGFRB (Homo sapiens, UniProt P09619).
Excerpt: as §1, §2

For the next assay, the target named is SGK1/SGK (Homo sapiens, UniProt O00141).
Excerpt: as §1, §2

Another assay concerns the target AURKB (Homo sapiens, UniProt Q96GD4).
Excerpt: as §1, §2

MINK1/MINK, sequence (Q8N4C8 whole entry): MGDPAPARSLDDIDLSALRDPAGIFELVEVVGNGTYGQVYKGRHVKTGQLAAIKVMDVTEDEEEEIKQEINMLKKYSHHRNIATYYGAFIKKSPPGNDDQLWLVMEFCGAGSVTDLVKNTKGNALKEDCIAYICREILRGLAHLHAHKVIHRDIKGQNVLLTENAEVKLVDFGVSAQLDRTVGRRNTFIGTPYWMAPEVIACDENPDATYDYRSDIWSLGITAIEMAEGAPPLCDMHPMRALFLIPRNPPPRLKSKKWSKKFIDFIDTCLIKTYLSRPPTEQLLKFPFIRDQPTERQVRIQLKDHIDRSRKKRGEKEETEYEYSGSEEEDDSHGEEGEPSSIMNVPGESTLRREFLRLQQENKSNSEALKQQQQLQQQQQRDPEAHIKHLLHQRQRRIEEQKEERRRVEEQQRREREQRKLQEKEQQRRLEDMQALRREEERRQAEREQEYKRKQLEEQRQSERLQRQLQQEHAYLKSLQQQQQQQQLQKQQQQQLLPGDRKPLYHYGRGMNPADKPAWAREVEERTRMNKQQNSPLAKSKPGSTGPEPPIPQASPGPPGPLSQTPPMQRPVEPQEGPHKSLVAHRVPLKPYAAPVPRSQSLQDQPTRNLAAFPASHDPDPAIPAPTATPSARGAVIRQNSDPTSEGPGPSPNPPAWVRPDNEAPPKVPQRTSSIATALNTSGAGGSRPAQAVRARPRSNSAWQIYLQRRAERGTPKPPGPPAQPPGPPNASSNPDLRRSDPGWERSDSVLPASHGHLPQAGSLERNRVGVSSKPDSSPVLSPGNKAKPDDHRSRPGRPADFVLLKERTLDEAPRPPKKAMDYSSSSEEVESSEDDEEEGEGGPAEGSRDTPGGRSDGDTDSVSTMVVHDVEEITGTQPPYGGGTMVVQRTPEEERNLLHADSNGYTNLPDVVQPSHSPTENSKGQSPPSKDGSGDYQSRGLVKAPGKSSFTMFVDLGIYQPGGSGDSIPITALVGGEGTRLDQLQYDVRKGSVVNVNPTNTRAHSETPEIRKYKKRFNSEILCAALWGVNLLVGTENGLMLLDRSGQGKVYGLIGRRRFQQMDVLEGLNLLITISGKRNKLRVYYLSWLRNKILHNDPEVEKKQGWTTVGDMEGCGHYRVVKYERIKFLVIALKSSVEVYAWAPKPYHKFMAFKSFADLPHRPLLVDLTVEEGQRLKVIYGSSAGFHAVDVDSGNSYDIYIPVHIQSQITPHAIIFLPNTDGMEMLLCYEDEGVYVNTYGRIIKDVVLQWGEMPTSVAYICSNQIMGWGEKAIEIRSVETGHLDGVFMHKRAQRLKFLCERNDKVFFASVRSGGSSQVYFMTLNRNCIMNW
TNIK, sequence (Q9UKE5 whole entry): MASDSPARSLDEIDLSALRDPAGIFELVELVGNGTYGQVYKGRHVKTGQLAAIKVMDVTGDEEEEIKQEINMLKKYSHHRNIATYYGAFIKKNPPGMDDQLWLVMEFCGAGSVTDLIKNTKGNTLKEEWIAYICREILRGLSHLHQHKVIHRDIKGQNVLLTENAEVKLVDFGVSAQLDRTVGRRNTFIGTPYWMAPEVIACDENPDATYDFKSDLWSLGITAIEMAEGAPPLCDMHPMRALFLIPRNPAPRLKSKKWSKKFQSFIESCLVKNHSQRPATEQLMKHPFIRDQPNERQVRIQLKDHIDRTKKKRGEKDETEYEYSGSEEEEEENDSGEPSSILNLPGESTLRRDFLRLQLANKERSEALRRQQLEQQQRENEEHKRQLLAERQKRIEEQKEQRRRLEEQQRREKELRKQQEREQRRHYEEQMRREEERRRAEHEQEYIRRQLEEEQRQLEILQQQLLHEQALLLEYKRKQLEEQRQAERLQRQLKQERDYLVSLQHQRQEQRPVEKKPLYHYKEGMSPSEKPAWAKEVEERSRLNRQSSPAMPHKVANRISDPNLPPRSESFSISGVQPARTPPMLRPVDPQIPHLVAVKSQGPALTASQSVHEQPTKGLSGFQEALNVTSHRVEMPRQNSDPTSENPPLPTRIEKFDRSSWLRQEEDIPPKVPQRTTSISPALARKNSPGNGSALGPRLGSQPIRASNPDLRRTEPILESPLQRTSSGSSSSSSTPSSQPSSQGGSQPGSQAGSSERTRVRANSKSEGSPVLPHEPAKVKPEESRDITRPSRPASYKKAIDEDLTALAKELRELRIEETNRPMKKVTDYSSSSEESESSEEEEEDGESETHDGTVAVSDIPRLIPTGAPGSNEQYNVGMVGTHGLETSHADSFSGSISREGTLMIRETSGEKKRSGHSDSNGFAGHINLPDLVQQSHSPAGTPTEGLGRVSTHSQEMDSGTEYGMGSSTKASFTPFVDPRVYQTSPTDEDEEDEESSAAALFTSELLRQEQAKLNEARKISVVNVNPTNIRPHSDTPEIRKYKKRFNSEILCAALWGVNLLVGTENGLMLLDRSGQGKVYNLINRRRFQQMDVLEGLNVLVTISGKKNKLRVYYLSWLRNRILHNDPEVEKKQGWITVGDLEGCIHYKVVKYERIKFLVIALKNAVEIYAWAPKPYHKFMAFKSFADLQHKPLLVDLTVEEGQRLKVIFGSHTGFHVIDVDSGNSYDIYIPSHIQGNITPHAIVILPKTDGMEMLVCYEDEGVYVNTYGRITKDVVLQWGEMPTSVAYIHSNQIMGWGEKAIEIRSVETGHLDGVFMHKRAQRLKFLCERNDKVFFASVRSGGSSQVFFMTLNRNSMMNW

With `COc1ccc2[nH]c3c4[nH]c5ccc(OC)cc5c4c4c(c3c2c1)C(=O)NC4=O` [GW296115], the concentration for half-maximal inhibition (IC50) (in general, the concentration needed to halve the response being measured) on TNIK came out at 0.01 µM; at DAPK3/ZIPK, 0.1 µM; on CHEK2, 0.0026 µM; against BRSK2, 0.0084 µM; against PLK4, 0.017 µM; against PDGFRA, 0.71 µM. The half-inhibitory concentration (IC50) against DMPK is above 10 µM; against PHKG1 it was 0.02 µM; at MINK1/MINK, 0.035 µM; against ROS1, above 10 µM; against PIM3, 0.089 µM; against RPS6KA6/RSK4, 0.012 µM. For the same compound, the half-inhibitory concentration (IC50) was above 10 µM at PDGFRB, 0.71 µM against SGK1/SGK and 0.094 µM on AURKB.
